According to ChEMBL document CHEMBL4152208, “Synthesis and structure-activity relationships of quinolinone and quinoline-based P2X7 receptor antagonists and their anti-sphere formation activities in glioblastoma cells” (Eur J Med Chem, 2018):
Activity calls are given as the source filed them. The calls are words filed in the database; no cut-off is given here.

How the values were obtained:
[1] = molecular target: T1, P2X purinoceptor 7 (Homo sapiens) (UniProt Q99572); experiment: Antagonist activity at human P2X7 receptor expressed in HEK293 cells assessed as inhibition of BzATP-induced EtBr uptake at 10 uM after 2 hrs by fluorescence assay relative to control; format: cell-based
T1 sequence (whole entry): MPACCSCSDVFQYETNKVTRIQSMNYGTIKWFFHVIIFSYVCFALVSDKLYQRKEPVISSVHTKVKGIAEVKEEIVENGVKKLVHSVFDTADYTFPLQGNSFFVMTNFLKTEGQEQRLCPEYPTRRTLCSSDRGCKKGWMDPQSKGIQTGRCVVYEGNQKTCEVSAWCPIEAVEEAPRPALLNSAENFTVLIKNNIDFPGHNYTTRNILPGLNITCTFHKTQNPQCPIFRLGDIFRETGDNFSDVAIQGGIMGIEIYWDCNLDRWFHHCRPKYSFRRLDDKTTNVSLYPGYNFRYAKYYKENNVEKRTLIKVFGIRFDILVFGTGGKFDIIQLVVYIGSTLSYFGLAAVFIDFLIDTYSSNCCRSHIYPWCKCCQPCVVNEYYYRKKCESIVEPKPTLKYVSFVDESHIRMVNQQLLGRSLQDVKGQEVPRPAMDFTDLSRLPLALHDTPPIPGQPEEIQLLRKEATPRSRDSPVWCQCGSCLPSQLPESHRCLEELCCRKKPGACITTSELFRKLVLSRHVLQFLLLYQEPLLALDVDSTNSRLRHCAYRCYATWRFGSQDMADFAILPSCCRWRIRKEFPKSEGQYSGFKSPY

[2] = molecular target: T1, P2X purinoceptor 7 (Homo sapiens); experiment: Antagonist activity at human P2X7 receptor expressed in HEK293 cells assessed as inhibition of BzATP-induced EtBr uptake at 1 uM after 2 hrs by fluorescence assay relative to control; format: cell-based
P2X purinoceptor 7 [3] = molecular target: T2, P2X purinoceptor 7 (Homo sapiens, UniProt Q99572); experiment: Antagonist activity at human P2X7 receptor expressed in HEK293 cells assessed as inhibition of BzATP-induced EtBr uptake after 2 hrs by fluorescence assay relative to control; format: cell-based
T2 sequence (Q99572 whole entry): T1 sequence (whole entry)

[4] = molecular target: T1, P2X purinoceptor 7 (Homo sapiens); experiment: Antagonist activity at P2X7 in LPS/IFN gamma differentiated human THP-1 cells assessed as inhibition of BzATP-induced IL-1beta release at 10 uM preincubated for 30 mins followed by BzATP stimulation for 30 mins by ELISA; format: cell-based
[5] = molecular target: T1, P2X purinoceptor 7 (Homo sapiens); experiment: Antagonist activity at P2X7 in LPS/IFN gamma differentiated human THP-1 cells assessed as inhibition of BzATP-induced IL-1beta release at 1 uM preincubated for 30 mins followed by BzATP stimulation for 30 mins by ELISA; format: cell-based
P2X purinoceptor 7 [6] = molecular target: T2, P2X purinoceptor 7; experiment: Antagonist activity at P2X7 in LPS/IFN gamma differentiated human THP-1 cells assessed as inhibition of BzATP-induced IL-1beta release preincubated for 30 mins followed by BzATP stimulation for 30 mins by ELISA; format: cell-based
[7] = molecular target: T3, P2X purinoceptor 1 (Homo sapiens) (UniProt P51575); experiment: Antagonist activity at human P2X1 receptor expressed in 1321N1 cells assessed as inhibition of ATP-induced calcium flux at 1 uM measured for 30 secs at 0.4 secs intervals by Flou-4-AM dye based fluorescence assay relative to control; format: cell-based
T3 sequence (whole entry): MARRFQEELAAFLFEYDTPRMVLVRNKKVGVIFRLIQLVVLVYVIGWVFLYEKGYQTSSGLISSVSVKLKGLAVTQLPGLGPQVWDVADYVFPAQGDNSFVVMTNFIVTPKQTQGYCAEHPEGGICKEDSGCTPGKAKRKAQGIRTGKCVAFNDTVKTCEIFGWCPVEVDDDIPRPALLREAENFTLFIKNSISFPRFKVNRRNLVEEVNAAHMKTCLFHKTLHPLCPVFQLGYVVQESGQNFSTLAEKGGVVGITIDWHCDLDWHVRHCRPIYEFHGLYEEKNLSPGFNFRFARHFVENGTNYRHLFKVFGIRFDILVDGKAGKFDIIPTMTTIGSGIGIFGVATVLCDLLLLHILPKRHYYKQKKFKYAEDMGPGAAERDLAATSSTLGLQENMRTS

[8] = molecular target: T4, P2X purinoceptor 2 (Homo sapiens) (UniProt Q9UBL9); experiment: Antagonist activity at human P2X2 receptor expressed in 1321N1 cells assessed as inhibition of ATP-induced calcium flux at 1 uM measured for 30 secs at 0.4 secs intervals by Flou-4-AM dye based fluorescence assay relative to control; format: cell-based
T4 sequence (whole entry): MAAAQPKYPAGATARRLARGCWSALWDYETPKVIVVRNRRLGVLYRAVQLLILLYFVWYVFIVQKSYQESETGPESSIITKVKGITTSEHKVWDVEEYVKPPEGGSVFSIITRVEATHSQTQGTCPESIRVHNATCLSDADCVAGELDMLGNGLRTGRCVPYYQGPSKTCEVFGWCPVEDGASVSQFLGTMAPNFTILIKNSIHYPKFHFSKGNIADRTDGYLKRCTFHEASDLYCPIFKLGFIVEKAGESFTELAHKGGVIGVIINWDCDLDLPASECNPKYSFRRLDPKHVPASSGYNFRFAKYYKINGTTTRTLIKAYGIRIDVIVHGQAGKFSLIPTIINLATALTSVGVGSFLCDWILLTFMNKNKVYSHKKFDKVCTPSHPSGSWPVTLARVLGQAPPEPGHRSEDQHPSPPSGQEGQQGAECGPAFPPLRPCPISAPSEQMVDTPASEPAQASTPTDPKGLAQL

P2X purinoceptor 3 = molecular target: T5, P2X purinoceptor 3 (Homo sapiens, UniProt P56373); experiment: Antagonist activity at human P2X3 receptor expressed in 1321N1 cells assessed as inhibition of ATP-induced calcium flux measured for 30 secs at 0.4 secs intervals by Flou-4-AM dye based fluorescence assay; format: cell-based; conditions: read-out: IC50
T5 sequence (P56373 whole entry): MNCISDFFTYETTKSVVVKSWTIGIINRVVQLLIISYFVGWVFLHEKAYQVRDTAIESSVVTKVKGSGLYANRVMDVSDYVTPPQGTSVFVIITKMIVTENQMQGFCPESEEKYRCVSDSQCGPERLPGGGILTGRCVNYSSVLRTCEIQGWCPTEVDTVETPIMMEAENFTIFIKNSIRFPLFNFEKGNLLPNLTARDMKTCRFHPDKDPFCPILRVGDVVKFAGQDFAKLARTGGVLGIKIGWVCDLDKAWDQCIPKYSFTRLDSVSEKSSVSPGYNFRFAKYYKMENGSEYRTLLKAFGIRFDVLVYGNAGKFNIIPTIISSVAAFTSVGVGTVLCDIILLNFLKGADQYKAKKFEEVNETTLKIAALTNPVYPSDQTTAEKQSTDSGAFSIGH

[9] = molecular target: T6, P2X purinoceptor 4 (Homo sapiens) (UniProt Q99571); experiment: Antagonist activity at human P2X4 receptor expressed in 1321N1 cells assessed as inhibition of ATP-induced calcium flux at 1 uM measured for 30 secs at 0.4 secs intervals by Flou-4-AM dye based fluorescence assay relative to control; format: cell-based
T6 sequence (whole entry): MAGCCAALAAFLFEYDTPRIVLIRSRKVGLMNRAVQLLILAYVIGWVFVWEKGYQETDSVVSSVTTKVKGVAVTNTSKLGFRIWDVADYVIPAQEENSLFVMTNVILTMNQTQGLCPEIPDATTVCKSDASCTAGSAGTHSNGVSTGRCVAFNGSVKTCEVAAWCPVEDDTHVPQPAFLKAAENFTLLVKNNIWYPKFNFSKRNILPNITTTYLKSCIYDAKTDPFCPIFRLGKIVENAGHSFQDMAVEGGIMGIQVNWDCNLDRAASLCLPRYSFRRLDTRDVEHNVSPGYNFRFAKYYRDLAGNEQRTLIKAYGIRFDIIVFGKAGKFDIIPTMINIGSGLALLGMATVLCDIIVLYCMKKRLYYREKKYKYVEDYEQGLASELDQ

Homo sapiens [10] = organism: Homo sapiens; experiment: Antiproliferative activity against human TS15-88 cells at 50 uM after 24 hrs by MTS assay; format: functional, cell-based
Homo sapiens [11] = organism: Homo sapiens; experiment: Antiproliferative activity against human TS15-88 cells at 50 uM after 72 hrs by MTS assay; format: functional, cell-based
[12] = Inhibition of neurosphere formation in human TS15-88 cells assessed as decrease in sphere size at 50 uM after 5 days by microscopic analysis relative to control; format: functional; conditions: 120 h
[13] = Cytotoxicity against HEK293 cells expressing human P2X7 receptor assessed as cell survival at 10 uM by MTT assay relative to control; format: cell-based; conditions: read-out: Survival
P2X purinoceptor 7 [14] = molecular target: T2, P2X purinoceptor 7; experiment: Antagonist activity at human P2X7 receptor in expressed in HEK293 cells assessed as inhibition of BzATP-induced EtBr uptake; format: cell-based
[15] = Effective permeability of the compound at 50 uM after 4 hrs by BBB-PAMPA method; format: ADME; conditions: read-out: Peff
[16] = Kinetic solubility of the compound in PAMPA buffer at 50 uM by nepheolometry method; format: physicochemical
[17] = Kinetic solubility of the compound in PAMPA buffer at 25 uM by nepheolometry method; format: physicochemical
[18] = Kinetic solubility of the compound in PAMPA buffer at 12.5 uM by nepheolometry method; format: physicochemical
[19] = Metabolic stability in human liver microsomes assessed as parent compound remaining at 1 uM up to 30 mins in presence of NADPH by LC-MS/MS analysis; format: ADME, microsome; conditions: read-out: Stability
[20] = Metabolic stability in rat liver microsomes assessed as parent compound remaining at 1 uM up to 30 mins in presence of NADPH by LC-MS/MS analysis; format: ADME, microsome; conditions: read-out: Stability
[21] = Metabolic stability in mouse liver microsomes assessed as parent compound remaining at 1 uM up to 30 mins in presence of NADPH by LC-MS/MS analysis; format: ADME, microsome; conditions: read-out: Stability

Structure (SMILES)	inhibition [1]	inhibition [2]	IC50 (P2X purinoceptor 7 [3])	inhibition [4]	inhibition [5]	also measured
COc1ccc(-c2ccc3c(NC(=O)CC45CC6CC(CC(C6)C4)C5)cccc3n2)cc1	97%	89%	0.018 µM	–	–	IC50 (P2X purinoceptor 7 [6]): 0.029 µM; inhibition [7]: 25%; inhibition [8]: 3%; IC50 (P2X purinoceptor 3): 3 µM; inhibition [9]: 17%; Activity (Homo sapiens [10]): inactive; Activity (Homo sapiens [11]): Active; inhibition at 50 µM [12]: > 50%; viability at 10 µM [13]: 90%
Clc1cccc(-c2nnnn2Cc2cccnc2)c1Cl	–	–	–	–	–	IC50 (P2X purinoceptor 7 [14]): 0.3 µM
Nc1ccc(-c2ccc3c(NC(=O)CC45CC6CC(CC(C6)C4)C5)cccc3n2)cc1	93%	85%	0.01 µM	–	–	IC50 (P2X purinoceptor 7 [6]): 0.019 µM; Activity (Homo sapiens [10]): Active; Activity (Homo sapiens [11]): Active; inhibition at 50 µM [12]: > 50%; viability at 10 µM [13]: 98%; Papp at 4 h, 50 µM [15]: 249 nm/s; Kinetic_solubility [16]: Soluble; Kinetic_solubility [17]: Soluble; Kinetic_solubility [18]: Soluble; remaining at 0.5 h, 1 µM [19]: 15.5%; remaining at 0.5 h, 1 µM [20]: 10.6%; remaining at 0.5 h, 1 µM [21]: 13.3%

Second part, led by results:

inhibition [1]	inhibition [2]	IC50 (P2X purinoceptor 7 [3])	inhibition [4]	inhibition [5]	Structure (SMILES)	also measured
88%	86%	0.062 µM	44%	7%	CCOC(=O)c1cc2c(NC(=O)C34CC5CC(CC(C5)C3)C4)cccc2n(Cc2ccc(OC)cc2)c1=O	–
85%	61%	0.809 µM	42%	38%	COC(=O)c1cc2c(NC(=O)C34CC5CC(CC(C5)C3)C4)cccc2n(Cc2ccc([N+](=O)[O-])cc2)c1=O	–
86%	66%	0.888 µM	35%	12%	COC(=O)c1cc2c(NC(=O)C34CC5CC(CC(C5)C3)C4)cccc2n(Cc2ccc(F)cc2)c1=O	–
87%	82%	0.263 µM	28%	11%	CCCOC(=O)c1cc2c(NC(=O)C34CC5CC(CC(C5)C3)C4)cccc2n(Cc2ccc(OC)cc2)c1=O	–
